Literature values in article PMC11539907, “Cytotoxicity of norstictic acid derivatives, a depsidone from Ramalina anceps Nyl” (Turkish Journal of Chemistry, 2024).
Read-outs that look alike come from different tables or passages of the source.

How the values were obtained:
[1] = tested on: 786-0 (kidney carcinoma) cells; parameters: method as in Bogo et al. (2020); conditions: ref Bogo et al. (2020), cited from earlier work
[2] = tested on: MCF7 (breast carcinoma) cells; parameters: method as in Bogo et al. (2020); conditions: ref Bogo et al. (2020), cited from earlier work
[3] = tested on: HT-29 (colon carcinoma) cells; parameters: method as in Bogo et al. (2020); conditions: ref Bogo et al. (2020), cited from earlier work
[4] = tested on: PC-03 (prostate carcinoma) cells; parameters: method as in Bogo et al. (2020); conditions: ref Bogo et al. (2020), cited from earlier work
[5] = tested on: HEP2 (laryngeal carcinoma) cells; parameters: method as in Bogo et al. (2020); conditions: ref Bogo et al. (2020), cited from earlier work
[6] = tested on: B16-F10 (murine melanoma) cells; parameters: method as in Brandão et al. (2013); conditions: ref Brandão et al. (2013), cited from earlier work
[7] = tested on: UACC-62 (human melanoma) cells; conditions: cited from earlier work
[8] = tested on: NIH/3T3 (mouse embryonic fibroblast) cells; parameters: method as in Bogo et al. (2020); conditions: NIH/3T3 normal cells; ref Bogo et al. (2020); read-out: growth inhibition (GI50); cited from earlier work
[9] = tested on: tested tumor cells (786-0, MCF7, HT-29, PC-03, HEP2, B16-F10, UACC-62); conditions: cited from earlier work; for cytotoxic activity in words: panel of tumor cells
TNBC MDA-MB-231 cells = tested on: TNBC MDA-MB-231 cells; parameters: method as in PMID 26744260; conditions: cited from earlier work
[10] = tested on: MCF-10A mammary epithelial cells; parameters: method as in PMID 26744260; conditions: cited from earlier work
[11] = tested on: MDA-MB-231/GFP cells implanted into athymic female nude mice; parameters: method as in PMID 26744260; conditions: cited from earlier work

## Cc1cc(O)c(C=O)c2c1C(=O)Oc1c(C)c(O)c3c(c1O2)C(O)OC3=O (stereo not shown) [compound 1, Norstictic acid]
[1]; 3T3 vs 786-0, from literature GI50 values
  selectivity index (SI): 0.9
[1]; 786-0 cells, read-out: growth inhibition (GI50)
  GI50: 759 µM
[2]; 3T3 vs MCF7
  selectivity index (SI): 4.3
[2]; MCF7 cells, read-out: growth inhibition (GI50)
  GI50: 162 µM
[3]; 3T3 vs HT-29, from literature GI50 values
  selectivity index (SI): 0.7
[3]; HT-29 cells, read-out: growth inhibition (GI50)
  GI50: 916 µM
[4]; 3T3 vs PC-03 (PC-3)
  selectivity index (SI): 3.6
[4]; PC-03 cells, read-out: growth inhibition (GI50)
  GI50: 191 µM
[5]; 3T3 vs HEP2
  selectivity index (SI): 4.4
[5]; HEP2 cells, read-out: growth inhibition (GI50)
  GI50: 157 µM
[6]; 3T3 vs B16-F10
  selectivity index (SI): >4.1
[6]; B16-F10 cells, read-out: growth inhibition (GI50)
  GI50: 168 µM
[7]; 3T3 vs UACC-62, ref Brandão et al. (2013)
  selectivity index (SI): >7.6
[7]; UACC-62 cells, ref Brandão et al. (2013), read-out: growth inhibition (GI50)
  GI50: 88.4 µM
[7]; UACC-62 human melanoma cells
  growth inhibition effect (GI50): 32.9 µg/mL
[8]
  GI50: 696 µM
[9]; MCF7, HEP2, PC-03, B16-F10, and UACC-62 cells, ref Bogo et al. (2020), Brandão et al. (2013), read-out: GI50, range
  GI50: 88.4 to 191 µM
[9]; listed as Norstictic acid
  cytotoxic activity in words: poor activity
[9]; listed as norstictic acid
  cytotoxic activity in words: low cytotoxic activity
TNBC MDA-MB-231 cells
  proliferation, migration, and invasion in words: significantly suppressed the proliferation, migration, and invasion
[10]
  toxicity to nontumorogenic cells in words: minimal toxicity
[11]
  in vivo effect on tumor growth in words: tolerability and significant inhibitory effect
